Reference: patent US6649658B1, “(−)-Verbenone derivatives” (Euphar Group SRL, priority 1999, dated 2003)

Experiments:
[1] = system: Turpentine-induced Pleurisy; test: Turpentine-induced pleurisy in the rat by the intraperitoneal route; format: in vivo; conditions: 60 mg/kg
Description: (§1) The anti-inflammatory activity of 3-amino-(−)-verbenone-5-sulphosalicylate was compared with that of (−)-verbenone in accordance with methods described in the literature (C. A. WINTER et al. Carrageenin induced edema in hind paw of the rat as an assay for antinflammatory drugs. Proc. Soc. Exp. Biol. Med. 111, 544, 1962. CURVOISIER et al. Action of chlorpromazine on the edema produced by dextran in rats. Arch. Inter. Pharmacodynamie, 102, 33-54, 1955. B. B. NEWBOULD) Chemotherapy of arthritis induced in rats by microbacterial adjuvant. Brit. J. Pharmacol. 21, 127-135, 1963. J. V. HURLEY et al. Reagin-Like antibodies in animals immune to helminth parasites. Nature (Lond.) 204, 91, 1964. ROTHKOPF et al. Arzneimittel Forschung 26, 225-235, 1976. C. A. WINTER et al. Antitussive compounds: testing methods and results. J. Pharmacol. Exp. Ther. 112, 99, 1954. G. OSTERLOH Arzneimittel Forschung, 16, 901, 1966); the results are given hereinafter in schematic form.
4. Turpentine-induced Pleurisy in the Rat by the Intraperitoneal Route
Parameter: percentage inhibition of the volume of exudate and of leukocyte migration: […]

Adverse Gastric Activity = test: Adverse gastric activity in the rat per os (Osterloh); format: in vivo; conditions: for evaluation of adverse gastric action according to Osterloh: rat, per os, 360 mg/kg, residual adverse gastric action after treatment
Description: as §1
8. Adverse Gastric Activity in the Rat per OS
Parameter: evaluation of adverse gastric action according to Osterloh
(§2) N. B. It should be emphasised in this connection that the results of Examples 1-6 have been given as a percentage of volumetric inhibition; Examples 7 and 8, however, indicate inflammation and adverse gastric action of a residual nature after treatment.

[2] = system: Carrageenin-induced Oedema; test: Carrageenin-induced oedema in the rat per os; format: in vivo; conditions: 200 mg/kg, maximum effect 120 minutes after administration
Description: as §1
1. Carrageenin-induced Oedema in the Rat per OS
(§3) Parameter: percentage volumetric inhibition; maximum effect 120 minutes after administration: […]

[3] = system: Carrageenin-induced Pleurisy; test: Carrageenin-induced pleurisy in the rat per os; format: in vivo; conditions: 180 mg/kg
Description: as §1
5. Carrageenin-induced Pleurisy in the Rat per OS
(§4) Parameter: percentage inhibition of the volume of exudate: […]

[4] = system: Carrageenin-induced Pleurisy; test: Carrageenin-induced pleurisy in the rat by the intraperitoneal route; format: in vivo; conditions: 25 mg/kg
Description: as §1
6. Carrageenin-induced Pleurisy in the Rat by the Intraperitoneal Route
as §4

[5] = system: Acrolein-induced Aerosol (inflammation of the airways); test: Acrolein-induced aerosol in the guinea pig by the intraperitoneal route; format: in vivo; conditions: 30 mg/kg, residual inflammation after treatment (lower is better)
Description: as §1
7. Acrolein-induced Aerosol in the Guinea Pig by the Intraperitoneal Route
Parameter: inflammation of the upper, middle, lower airways: scores (double blind):
as §2

[6] = system: Carrageenin-induced Oedema; test: Carrageenin-induced oedema in the rat by the intraperitoneal route; format: in vivo; conditions: 120 mg/kg, maximum effect 120 minutes after administration
Description: as §1
2. Carrageenin-induced Oedema in the Rat by the Intraperitoneal Route
as §3

Adjuvant Arthritis = test: Adjuvant arthritis in the rat by the intraperitoneal route; format: in vivo; conditions: 60 mg/kg, day 28
Description: as §1
3 Adjuvant Arthritis in the Rat by the Intraperitoneal Route
Parameter: percentage inhibition of the volumetric increase of the lower limbs; day “28”: […]

Water solubility = format: physicochemical; conditions: in words
[7] = Stability on storage or handling; format: physicochemical; conditions: in words

With “3-Aminoverbenone-5-sulphosalicylate [3-amino-(−)-verbenone-5-sulphosalicylate]” as the compound, how does the “percentage inhibition of the volume of exudate and of leukocyte migration” value [1] read?
The value was 68%.

And the “evaluation of adverse gastric action according to Osterloh” value (Adverse Gastric Activity)?
The value was 0.85.

What about the “adverse gastric activity compared with (−)-verbenone” value (Adverse Gastric Activity; test 8, in words) of the same compound?
Its value is “substantially lower adverse gastric activity”.

What about the percentage volumetric inhibition [2] of the same compound?
The percentage volumetric inhibition was 78%.

What about the “percentage inhibition of the volume of exudate” value [3] of the same compound?
Its value is 72%.

And the “percentage inhibition of the volume of exudate” value [4]?
Its value is 64%.

And the “inflammation of the upper, middle, lower airways: scores (double blind)” value [5]?
Its value is 18.

And the percentage volumetric inhibition [6]?
The percentage volumetric inhibition was 67%.

And the “percentage inhibition of the volumetric increase of the lower limbs” value (Adjuvant Arthritis)?
Its value is 64%.

Which “percentage inhibition of the volume of exudate and of leukocyte migration” value [1] does the source give for `CC1=CC(=O)[C@H]2C[C@@H]1C2(C)C` [(−)-verbenone, (1S,5S)-4,6,6-Trimethylbicyclo[3.1.1]hept-3-en-2-one] here?
Its value is 49%.

And the solubility in water (Water solubility)?
Its solubility in water is “water-insolubility”.

And the “evaluation of adverse gastric action according to Osterloh” value (Adverse Gastric Activity)?
The value was 2.

What about the percentage volumetric inhibition [2] of the same compound?
The percentage volumetric inhibition was 63%.

And the “percentage inhibition of the volume of exudate” value [3]?
Its value is 46%.

What about the “percentage inhibition of the volume of exudate” value [4] of the same compound?
The value was 48%.

What about the “inflammation of the upper, middle, lower airways: scores (double blind)” value [5] of the same compound?
The value was 24.

And the percentage volumetric inhibition [6]?
The percentage volumetric inhibition was 48%.

And the stability [7]?
Its stability is “instability over time”.

And the “percentage inhibition of the volumetric increase of the lower limbs” value (Adjuvant Arthritis)?
The value was 39%.

With `C=C1C=C(N2CCCC2)[C@H]2C[C@H]1C2(C)C` [Compound 9c, (1S,5S)-6,6-Dimethyl-4-methylene-2-pyrrolidinobicyclo[3.1.1]hept-2-ene] as the compound, how does the stability [7] read?
Its stability is “sensitive to oxygen, moisture and light”.
